Assay results taken from ChEMBL document CHEMBL2434921, “New synthetic aliphatic sulfonamido-quaternary ammonium salts as anticancer chemotherapeutic agents” (2013).
The source made the active and inactive calls. The rule behind the calls is not given here.

Tests used:
NCI-H23 [1] = test: Growth inhibition of human NCI-H23 cells after 48 hrs by SRB assay; assay type: functional; conditions: NCI-H23, 48 h
HCT-15 [2] = test: Growth inhibition of human HCT15 cells after 48 hrs by SRB assay; assay type: functional; conditions: HCT-15, 48 h
[3] = target: Rho-related GTP-binding protein RhoB (Homo sapiens) (UniProt P62745); test: Transactivation of RhoB (unknown origin) transfected in human HeLa cells at 5 uM measured over 10 secs by dual luciferase reporter gene assay; assay type: cell-based
NUGC-3 [4] = test: Growth inhibition of human NUGC3 cells after 48 hrs by SRB assay; assay type: functional; conditions: NUGC-3, 48 h
ACHN [5] = test: Growth inhibition of human ACHN cells after 48 hrs by SRB assay; assay type: functional
MDA-MB-231 [6] = test: Growth inhibition of human MDA-MB-231 cells after 48 hrs by SRB assay; assay type: functional; conditions: MDA-MB-231, 48 h
PC-3 [7] = test: Growth inhibition of human PC3 cells after 48 hrs by SRB assay; assay type: functional; conditions: PC-3, 48 h
PC-3 [8] = test: Growth of human PC3 cells at 10 uM after 48 hrs by SRB assay; conditions: PC-3, 48 h
NUGC-3 [9] = test: Growth of human NUGC3 cells at 1 uM after 48 hrs by SRB assay; conditions: NUGC-3, 48 h
ACHN [10] = test: Growth of human ACHN cells at 10 uM after 48 hrs by SRB assay
HCT-15 [11] = test: Growth of human HCT15 cells at 3 uM after 48 hrs by SRB assay; conditions: HCT-15, 48 h
ACHN [12] = test: Growth of human ACHN cells at 0.1 uM after 48 hrs by SRB assay
ACHN [13] = test: Growth of human ACHN cells at 0.3 uM after 48 hrs by SRB assay
NUGC-3 [14] = test: Growth of human NUGC3 cells at 0.1 uM after 48 hrs by SRB assay; conditions: NUGC-3, 48 h
NUGC-3 [15] = test: Growth of human NUGC3 cells at 0.3 uM after 48 hrs by SRB assay; conditions: NUGC-3, 48 h
HCT-15 [16] = test: Growth of human HCT15 cells at 0.3 uM after 48 hrs by SRB assay; conditions: HCT-15, 48 h
NCI-H23 [17] = test: Growth of human NCI-H23 cells at 10 uM after 48 hrs by SRB assay; conditions: NCI-H23, 48 h
NCI-H23 [18] = test: Growth of human NCI-H23 cells at 0.3 uM after 48 hrs by SRB assay; conditions: NCI-H23, 48 h
MDA-MB-231 [19] = test: Growth of human MDA-MB-231 cells at 1 uM after 48 hrs by SRB assay; conditions: MDA-MB-231, 48 h
MDA-MB-231 [20] = test: Growth of human MDA-MB-231 cells at 10 uM after 48 hrs by SRB assay; conditions: MDA-MB-231, 48 h
MDA-MB-231 [21] = test: Growth of human MDA-MB-231 cells at 0.1 uM after 48 hrs by SRB assay; conditions: MDA-MB-231, 48 h
MDA-MB-231 [22] = test: Growth of human MDA-MB-231 cells at 3 uM after 48 hrs by SRB assay; values are per cent of control; conditions: MDA-MB-231, 48 h
PC-3 [23] = test: Growth inhibition of human PC3 cells at 1 uM after 48 hrs by SRB assay; values are per cent of control; conditions: PC-3, 48 h
PC-3 [24] = test: Growth inhibition of human PC3 cells at 3 uM after 48 hrs by SRB assay; values are per cent of control; conditions: PC-3, 48 h
ACHN [25] = test: Growth inhibition of human ACHN cells at 3 uM after 48 hrs by SRB assay; values are per cent of control
ACHN [26] = test: Growth inhibition of human ACHN cells at 1 uM after 48 hrs by SRB assay; values are per cent of control
NUGC-3 [27] = test: Growth inhibition of human NUGC3 cells at 3 uM after 48 hrs by SRB assay; values are per cent of control; conditions: NUGC-3, 48 h
PC-3 [28] = test: Growth inhibition of human PC3 cells at 0.1 uM after 48 hrs by SRB assay; values are per cent of control; conditions: PC-3, 48 h
PC-3 [29] = test: Growth inhibition of human PC3 cells at 0.3 uM after 48 hrs by SRB assay; values are per cent of control; conditions: PC-3, 48 h
HCT-15 [30] = test: Growth inhibition of human HCT15 cells at 1 uM after 48 hrs by SRB assay; values are per cent of control; conditions: HCT-15, 48 h
NUGC-3 [31] = test: Growth inhibition of human NUGC3 cells at 10 uM after 48 hrs by SRB assay; values are per cent of control; conditions: NUGC-3, 48 h
HCT-15 [32] = test: Growth inhibition of human HCT15 cells at 10 uM after 48 hrs by SRB assay; values are per cent of control; conditions: HCT-15, 48 h
NCI-H23 [33] = test: Growth inhibition of human NCI-H23 cells at 1 uM after 48 hrs by SRB assay; values are per cent of control; conditions: NCI-H23, 48 h
NCI-H23 [34] = test: Growth inhibition of human NCI-H23 cells at 3 uM after 48 hrs by SRB assay; values are per cent of control; conditions: NCI-H23, 48 h
HCT-15 [35] = test: Growth inhibition of human HCT15 cells at 0.1 uM after 48 hrs by SRB assay; values are per cent of control; conditions: HCT-15, 48 h
NCI-H23 [36] = test: Growth inhibition of human NCI-H23 cells at 0.1 uM after 48 hrs by SRB assay; values are per cent of control; conditions: NCI-H23, 48 h
MDA-MB-231 [37] = test: Growth inhibition of human MDA-MB-231 cells at 0.3 uM after 48 hrs by SRB assay; values are per cent of control; conditions: MDA-MB-231, 48 h

Rho-related GTP-binding protein RhoB (Homo sapiens), sequence (P62745 whole entry): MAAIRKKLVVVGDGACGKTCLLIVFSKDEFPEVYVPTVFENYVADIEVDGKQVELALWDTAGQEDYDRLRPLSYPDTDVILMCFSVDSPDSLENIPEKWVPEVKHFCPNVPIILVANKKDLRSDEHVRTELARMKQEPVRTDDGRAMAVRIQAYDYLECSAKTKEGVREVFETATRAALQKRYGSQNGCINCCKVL

GI50 (NCI-H23 [1]): 460 nM
GI50 (HCT-15 [2]): 940 nM
Activity [3]: Active
GI50 (ACHN [5]): 2040 nM
GI50 (MDA-MB-231 [6]): 1400 nM
GI50 (PC-3 [7]): 450 nM
SMILES: CCCCCCCCCCCCCCS(=O)(=O)NCCC[N+](C)(C)C [TRIMETHYL-[3-(TETRADECANE-1-SULFONYLAMINO)-PROPYL]-AMMONIUM IODIDE]
GI50 (NUGC-3 [4]): 380 nM
growth, % of control at 10 µM (PC-3 [8]): -7.8%
growth, % of control at 1 µM (NUGC-3 [9]): 43.1%
growth, % of control at 10 µM (ACHN [10]): 29.7%
growth, % of control at 3 µM (HCT-15 [11]): 31.5%
growth, % of control at 0.1 µM (ACHN [12]): 88%
growth, % of control at 0.3 µM (ACHN [13]): 88.6%
growth, % of control at 0.1 µM (NUGC-3 [14]): 84.4%
growth, % of control at 0.3 µM (NUGC-3 [15]): 73.2%
growth, % of control at 0.3 µM (HCT-15 [16]): 91.2%
growth, % of control at 10 µM (NCI-H23 [17]): -34.5%
growth, % of control at 0.3 µM (NCI-H23 [18]): 86.5%
growth, % of control at 1 µM (MDA-MB-231 [19]): 76.7%
growth, % of control at 10 µM (MDA-MB-231 [20]): 25.1%
growth, % of control at 0.1 µM (MDA-MB-231 [21]): 84.6%
growth, % of control at 3 µM (MDA-MB-231 [22]): 45.3%
growth, % of control at 1 µM (PC-3 [23]): 52.2%
growth, % of control at 3 µM (PC-3 [24]): 9.5%
growth, % of control at 3 µM (ACHN [25]): 49.9%
growth, % of control at 1 µM (ACHN [26]): 96.8%
growth, % of control at 3 µM (NUGC-3 [27]): 21.5%
growth, % of control at 0.1 µM (PC-3 [28]): 86.7%
growth, % of control at 0.3 µM (PC-3 [29]): 80.6%
growth, % of control at 1 µM (HCT-15 [30]): 66.5%
growth, % of control at 10 µM (NUGC-3 [31]): 5.4%
growth, % of control at 10 µM (HCT-15 [32]): 22%
growth, % of control at 1 µM (NCI-H23 [33]): 48.4%
growth, % of control at 3 µM (NCI-H23 [34]): -5.1%
growth, % of control at 0.1 µM (HCT-15 [35]): 94.3%
growth, % of control at 0.1 µM (NCI-H23 [36]): 84.7%
growth, % of control at 0.3 µM (MDA-MB-231 [37]): 86.4%
